US5422341A, “Motilin-like polypeptides with gastrointestinal motor stimulating activity” (Ohmeda Pharmaceutical Products Division Inc., priority 1993, dated 1995)
Read-outs that look alike come from different tables or passages of the source. Square brackets hold non-standard residues; d marks the D form. Peptide text beside a SMILES is read from it. * marks the point of attachment. X1 = C[N+](C)(C)[C@@H](Cc1ccccc1)C(=O)*; NMe2Phe = CN(C)[C@@H](Cc1ccccc1)C(=O)*; NMeF = CN[C@@H](Cc1ccccc1)C(=O)O; dCha = N[C@H](CC1CCCCC1)C(=O)O

How the values were obtained:
[1] = biological target: T1, motilin receptor (Oryctolagus cuniculus, UniProt G1T803); assay: Determination of motilin receptor binding affinity (displacement of [125I-Tyr7, Nle13]motilin(porcine)); set-up: species or system rabbit
T1 construct: from tissue; host or cells: rabbit antral smooth muscle membranes
T1 sequence (G1T803 1-400): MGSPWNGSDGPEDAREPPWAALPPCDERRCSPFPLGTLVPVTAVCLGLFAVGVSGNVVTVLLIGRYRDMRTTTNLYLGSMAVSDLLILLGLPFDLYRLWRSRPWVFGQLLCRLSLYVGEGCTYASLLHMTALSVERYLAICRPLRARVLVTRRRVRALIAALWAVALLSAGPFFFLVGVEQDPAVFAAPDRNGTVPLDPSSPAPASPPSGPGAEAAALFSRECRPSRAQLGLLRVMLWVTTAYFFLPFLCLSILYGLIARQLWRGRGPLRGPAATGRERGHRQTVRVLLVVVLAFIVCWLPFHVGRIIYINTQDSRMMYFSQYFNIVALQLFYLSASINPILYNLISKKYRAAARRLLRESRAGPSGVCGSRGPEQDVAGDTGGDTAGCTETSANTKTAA
Protocol: The motilin receptor binding affinity of the peptides of this invention was determined by using the general procedure of Bormans, Peelers and Vantrappen, Regul. […] Fitting was performed using the iterative least-squares procedure of the SAS-software package (SAS Institute, Inc., Cary, N.C., USA).

[2] = biological target: segments of rabbit duodenum (Oryctolagus cuniculus, UniProt G1T803); assay: Rabbit duodenal smooth muscle strip tissue bath assay; assay type: cell-based; conditions: negative logarithm of the dose giving 50% of the maximal response to motilin; isotonic contraction of rabbit duodenum segments
Chain of segments of rabbit duodenum (G1T803 1-400): as above
Protocol: The contractile response of segments of rabbit duodenum was determined isotonically in the tissue bath according to the procedure of Depoortere et at., J. Gastrointestinal Motility, 1, 150-159 (1989). The experimental protocol consisted of an equilibration period of 1 hour; a challenge with 10^-4 M acetylcholine followed by a wash-out period; a cumulative dose-response curve of a compound with, at the end, the addition of 10^-7 M motilin; and finally 10^-4 M acetylcholine. If the final response to 10^-4 M acetylcholine differed by more than 5% from the initial response, the results were discarded. The compounds were tested in the concentration range 10^-11 to 10^-4 M. The point corresponding to 50% of the maximal response to motilin (Emax) was determined by fitting the equation E=Emax (1+EC50 /[L]) through the data points. […] The dose giving 50% of the response is expressed using its negative logarithm (pEC50).

[3] = negative logarithm of the concentration displacing 50% of [125I-Tyr7, Nle13]motilin(porcine) from rabbit antral smooth muscle membranes, read-out: pIC50 (converted)

| SMILES | IC50 [1, 3] [nM] | pEC50 [2] | IC50 ([1]; pIC50, negative logarithm of the concentration displacing 50% of [125I-Tyr7, Nle13]motilin(porcine) from rabbit antral smooth muscle membranes) [nM] |
| --- | --- | --- | --- |
| CC[C@H](C)[C@H](NC(=O)[C@H](C)NC(=O)[C@@H](NC(=O)[C@@H](N)Cc1ccccc1)C(C)C)C(=O)N[C@@H](Cc1ccccc1)C(=O)N[C@H](C(=O)N[C@@H](Cc1ccc(O)cc1)C(=O)NCC(=O)N[C@@H](CCC(=O)O)C(=O)N[C@@H](CC(C)C)C(=O)N[C@@H](CCC(N)=O)C(=O)N[C@H](CCCNC(=N)N)C(=O)N[C@@H](CC(C)C)C(=O)N[C@@H](CCC(N)=O)C(N)=O)[C@@H](C)O (H-FVAIFTYGELQ[dR]LQ-NH2) | 1.95 | 7.76 | – |
| CC[C@H](C)[C@H](NC(=O)[C@@H]1CCCN1C(=O)[C@@H](NC(=O)[C@@H](N)Cc1ccccc1)C(C)C)C(=O)N[C@@H](Cc1ccccc1)C(=O)N[C@H](C(=O)N[C@@H](Cc1ccc(O)cc1)C(=O)NCC(=O)N[C@@H](CCC(=O)O)C(=O)N[C@@H](CC(C)C)C(=O)N[C@@H](CCC(N)=O)C(=O)N[C@H](CCCNC(=N)N)C(=O)N[C@@H](CC(C)C)C(=O)N[C@@H](CCCCN)C(N)=O)[C@@H](C)O (H-FVPIFTYGELQ[dR]LK-NH2) | 1.29 | 7.13 | – |
| CC[C@H](C)[C@H](NC(=O)[C@H](C)NC(=O)[C@@H](NC(=O)[C@H](Cc1ccccc1)NC)C(C)C)C(=O)N[C@@H](Cc1ccccc1)C(=O)N[C@H](C(=O)N[C@@H](Cc1ccc(O)cc1)C(=O)NCC(=O)N[C@@H](CCC(=O)O)C(=O)N[C@@H](CC(C)C)C(=O)N[C@@H](C)C(=O)N[C@H](CCCNC(=N)N)C(=O)N[C@@H](CC(C)C)C(=O)N[C@H](CCC(N)=O)C(N)=O)[C@@H](C)O (H-[NMeF]VAIFTYGELA[dR]L[dQ]-NH2) | 0.724 | 7.32 | – |
| CC[C@H](C)[C@H](NC(=O)[C@H](C)NC(=O)[C@@H](NC(=O)[C@H](Cc1ccccc1)NC)C(C)C)C(=O)N[C@@H](Cc1ccccc1)C(=O)N[C@H](C(=O)N[C@@H](Cc1ccc(O)cc1)C(=O)NCC(=O)N[C@@H](CCC(=O)O)C(=O)N[C@@H](CC(C)C)C(=O)N[C@@H](CCC(N)=O)C(=O)N[C@H](CCCNC(=N)N)C(=O)N[C@@H](CC(C)C)C(=O)N[C@H](CCC(N)=O)C(N)=O)[C@@H](C)O (H-[NMeF]VAIFTYGELQ[dR]L[dQ]-NH2) | – | 8.07 | 0.776 |
| CC[C@H](C)[C@H](NC(=O)[C@@H]1CCCN1C(=O)[C@@H](NC(=O)[C@H](Cc1ccccc1)NC)C(C)C)C(=O)N[C@@H](Cc1ccccc1)C(=O)N[C@H](C(=O)N[C@@H](Cc1ccc(O)cc1)C(=O)NCC(=O)N[C@@H](CCC(=O)O)C(=O)N[C@@H](CC(C)C)C(=O)N[C@@H](CCC(N)=O)C(=O)N[C@@H](CCCNC(=N)N)C(=O)N[C@@H](CC(C)C)C(=O)N[C@H](CCC(N)=O)C(N)=O)[C@@H](C)O (H-[NMeF]VPIFTYGELQRL[dQ]-NH2) | 0.617 | – | – |
| CC[C@H](C)[C@H](NC(=O)[C@@H]1CCCN1C(=O)[C@@H](NC(=O)[C@H](Cc1ccccc1)NC)C(C)C)C(=O)N[C@@H](Cc1ccccc1)C(=O)N[C@H](C(=O)N[C@@H](Cc1ccc(O)cc1)C(=O)NCC(=O)N[C@@H](CCC(=O)O)C(=O)N[C@@H](CC(C)C)C(=O)N[C@@H](CCC(N)=O)C(=O)N[C@H](CCCNC(=N)N)C(=O)N[C@@H](CC(C)C)C(=O)N[C@@H](CCC(N)=O)C(N)=O)[C@@H](C)O (H-[NMeF]VPIFTYGELQ[dR]LQ-NH2) | 1.02 | 7.95 | – |
| CC[C@H](C)[C@H](NC(=O)[C@H](C)NC(=O)[C@@H](NC(=O)[C@H](N)CC1CCCCC1)C(C)C)C(=O)N[C@@H](Cc1ccccc1)C(=O)N[C@H](C(=O)N[C@@H](Cc1ccc(O)cc1)C(=O)NCC(=O)N[C@@H](CCC(=O)O)C(=O)N[C@@H](CC(C)C)C(=O)N[C@@H](C)C(=O)N[C@H](CCCNC(=N)N)C(=O)N[C@@H](CC(C)C)C(=O)N[C@H](CCCCN)C(N)=O)[C@@H](C)O (H-[dCha]VAIFTYGELA[dR]L[dK]-NH2) | 0.933 | 7.25 | – |
| CC[C@H](C)[C@H](NC(=O)[C@H](C)NC(=O)[C@@H](NC(=O)[C@H](Cc1ccccc1)N(C)C)C(C)C)C(=O)N[C@@H](Cc1ccccc1)C(=O)N[C@H](C(=O)N[C@@H](Cc1ccc(O)cc1)C(=O)NCC(=O)N[C@@H](CCC(=O)O)C(=O)N[C@@H](CC(C)C)C(=O)N[C@@H](C)C(=O)N[C@H](CCCNC(=N)N)C(=O)N[C@@H](CC(C)C)C(=O)N[C@H](CCCCN)C(N)=O)[C@@H](C)O (NMe2Phe-VAIFTYGELA[dR]L[dK]-NH2) | 4.07 | 7.73 | – |
| CC[C@H](C)[C@H](NC(=O)[C@@H]1CCCN1C(=O)[C@@H](NC(=O)[C@H](Cc1ccccc1)N(C)C)C(C)C)C(=O)N[C@@H](Cc1ccccc1)C(=O)N[C@H](C(=O)N[C@@H](Cc1ccc(O)cc1)C(=O)NCC(=O)N[C@@H](CCC(=O)O)C(=O)N[C@@H](CC(C)C)C(=O)N[C@@H](C)C(=O)N[C@H](CCCNC(=N)N)C(=O)N[C@@H](CC(C)C)C(=O)N[C@@H](CCC(N)=O)C(N)=O)[C@@H](C)O (NMe2Phe-VPIFTYGELA[dR]LQ-NH2) | 1.95 | 7.76 | – |
| CC[C@H](C)[C@H](NC(=O)[C@H](C)NC(=O)[C@@H](NC(=O)[C@H](Cc1ccccc1)[N+](C)(C)C)C(C)C)C(=O)N[C@@H](Cc1ccccc1)C(=O)N[C@H](C(=O)N[C@@H](Cc1ccc(O)cc1)C(=O)NCC(=O)N[C@@H](CCC(=O)O)C(=O)N[C@@H](CC(C)C)C(=O)N[C@@H](C)C(=O)N[C@H](CCCNC(=N)N)C(=O)N[C@@H](CC(C)C)C(=O)N[C@@H](CCC(N)=O)C(N)=O)[C@@H](C)O (X1-VAIFTYGELA[dR]LQ-NH2) | 1.95 | 7.31 | – |
| CC[C@H](C)[C@H](NC(=O)[C@H](C)NC(=O)[C@@H](NC(=O)[C@H](Cc1ccccc1)[N+](C)(C)C)C(C)C)C(=O)N[C@@H](Cc1ccccc1)C(=O)N[C@H](C(=O)N[C@@H](Cc1ccc(O)cc1)C(=O)NCC(=O)N[C@@H](CCC(=O)O)C(=O)N[C@@H](CC(C)C)C(=O)N[C@@H](C)C(=O)N[C@H](CCCNC(=N)N)C(=O)N[C@@H](CC(C)C)C(=O)N[C@H](CCC(N)=O)C(N)=O)[C@@H](C)O (X1-VAIFTYGELA[dR]L[dQ]-NH2) | 1.45 | 7.22 | – |
| CC[C@H](C)[C@H](NC(=O)[C@H](C)NC(=O)[C@@H](NC(=O)[C@H](Cc1ccccc1)[N+](C)(C)C)C(C)C)C(=O)N[C@@H](Cc1ccccc1)C(=O)N[C@H](C(=O)N[C@@H](Cc1ccc(O)cc1)C(=O)NCC(=O)N[C@@H](CCC(=O)O)C(=O)N[C@@H](CC(C)C)C(=O)N[C@@H](CCC(N)=O)C(=O)N[C@@H](CCCNC(=N)N)C(=O)N[C@@H](CC(C)C)C(=O)N[C@@H](CCCCN)C(N)=O)[C@@H](C)O (X1-VAIFTYGELQRLK-NH2) | 1.51 | 7.58 | – |
| CC[C@H](C)[C@H](NC(=O)[C@H](C)NC(=O)[C@@H](NC(=O)[C@H](Cc1ccccc1)[N+](C)(C)C)C(C)C)C(=O)N[C@@H](Cc1ccccc1)C(=O)N[C@H](C(=O)N[C@@H](Cc1ccc(O)cc1)C(=O)NCC(=O)N[C@@H](CCC(=O)O)C(=O)N[C@@H](CC(C)C)C(=O)N[C@@H](CCC(N)=O)C(=O)N[C@H](CCCNC(=N)N)C(=O)N[C@@H](CC(C)C)C(=O)N[C@@H](CCC(N)=O)C(N)=O)[C@@H](C)O (X1-VAIFTYGELQ[dR]LQ-NH2) [listing 1 of 2 here] | 2.63 | – | – |
| CC[C@H](C)[C@H](NC(=O)[C@H](C)NC(=O)[C@@H](NC(=O)[C@H](Cc1ccccc1)[N+](C)(C)C)C(C)C)C(=O)N[C@@H](Cc1ccccc1)C(=O)N[C@H](C(=O)N[C@@H](Cc1ccc(O)cc1)C(=O)NCC(=O)N[C@@H](CCC(=O)O)C(=O)N[C@@H](CC(C)C)C(=O)N[C@@H](CCC(N)=O)C(=O)N[C@H](CCCNC(=N)N)C(=O)N[C@@H](CC(C)C)C(=O)N[C@@H](CCC(N)=O)C(N)=O)[C@@H](C)O (X1-VAIFTYGELQ[dR]LQ-NH2) [listing 2 of 2 here] | 1.62 | – | – |
| CC[C@H](C)[C@H](NC(=O)[C@H](C)NC(=O)[C@@H](NC(=O)[C@H](Cc1ccccc1)[N+](C)(C)C)C(C)C)C(=O)N[C@@H](Cc1ccccc1)C(=O)N[C@H](C(=O)N[C@@H](Cc1ccc(O)cc1)C(=O)NCC(=O)N[C@@H](CCC(=O)O)C(=O)N[C@@H](CC(C)C)C(=O)N[C@@H](CCC(N)=O)C(=O)N[C@H](CCCNC(=N)N)C(=O)N[C@@H](CC(C)C)C(=O)N[C@H](CCC(N)=O)C(N)=O)[C@@H](C)O (X1-VAIFTYGELQ[dR]L[dQ]-NH2) | 1.41 | 7.20 | – |
| CC[C@H](C)[C@H](NC(=O)[C@H](C)NC(=O)[C@@H](NC(=O)[C@H](Cc1ccccc1)[N+](C)(C)C)C(C)C)C(=O)N[C@@H](Cc1ccccc1)C(=O)N[C@H](C(=O)N[C@@H](Cc1ccc(O)cc1)C(=O)NCC(=O)N[C@@H](CCC(=O)O)C(=O)N[C@@H](CC(C)C)C(=O)N[C@@H](CCC(N)=O)C(=O)N[C@H](CCCNC(=N)N)C(=O)N[C@@H](CC(C)C)C(=O)N[C@@H](CCC(N)=O)C(N)=O)[C@@H](C)O [[Me3 N^+ Phe^1, Ala^3, D-Arg^12, Leu^13 pMOT(1-14) amide] (X1-VAIFTYGELQ[dR]LQ-NH2) | – | 7.57 | – |
| CC[C@H](C)[C@H](NC(=O)[C@H](C)NC(=O)[C@@H](NC(=O)[C@H](Cc1ccccc1)[N+](C)(C)C)C(C)C)C(=O)N[C@@H](Cc1ccccc1)C(=O)N[C@H](C(=O)N[C@@H](Cc1ccc(O)cc1)C(=O)NCC(=O)N[C@@H](CCC(=O)O)C(=O)N[C@@H](CC(C)C)C(=O)N[C@@H](CCC(N)=O)C(=O)N[C@H](CCCNC(=N)N)C(=O)N[C@@H](CC(C)C)C(=O)N[C@@H](CCC(N)=O)C(N)=O)[C@@H](C)O [[Me3 N^+ Phe^1, Ala^3, D-Arg^13, Leu^13 ]pMOT(1-14) amide] (X1-VAIFTYGELQ[dR]LQ-NH2) | – | 7.32 | – |
